# Source: patent US20250270513A1, “METHOD FOR PRODUCING CULTURED TISSUE, AND PREPARATION FOR EXTERNAL APPLICATION” (National University Corporation Ehime University, priority 2019, published 2025)
# Experiments:
# [1] = test system: human normal skin keratinocytes; experiment: Culture of keratinocytes alone without collagen gel containing fibroblasts (Test Example 1); format: cell-based; conditions: 100 mg/mL trehalose in medium, no fibroblast collagen gel
# Procedure: • (2) Next, the collagen gel (layered dermal cell structure) containing NHDF was pre-cultured for 5 days using a DMEM medium containing 50 μg/ml ascorbic acid, 10 v/v % FCS, and 1 v/v % ABAM. Next, human normal skin keratinocytes suspended in MCDB medium were seeded on the collagen gel surface so as to be 1.28×10^5 cells/cm^2, and a medium obtained by mixing equal amounts of MCDB Type-II medium (Growth Medium 2 in JP-B2-3066624) and EGM was added to an external liquid of the cell culture insert and the inside of the insert, followed by culturing at 37° C. for 2 days.
# On the other hand, when 100 mg/mL trehalose was added to the medium of (2) without collagen gel containing fibroblasts and culture was performed with keratinocytes alone, formation of epithelial tissue layer was not observed as in the absence of trehalose.
# [2] = test system: keratinocytes on layered dermal cell structure containing fibroblasts; experiment: Large scale three-dimensional cultured tissue, confluent keratinocyte sheet, gas-liquid interface culture (Test Example 2); format: cell-based, human; conditions: 100 mg/mL trehalose in dermal cell structure; confluent keratinocyte sheet of about 1 cm; 75 mm insert; 5 days
# Procedure: • (1) A layered dermal cell structure containing trehalose at a final concentration of 0 or 100 mg/mL was prepared according to the method (1) of Test Example above except that 10 mL of the gel solution I was added to a cell culture insert with a diameter of 75 mm, and 32 mL of the gel solution containing fibroblasts at the same cell density as in (1) was layered. • (2) A ring with a diameter of 1 cm was placed on the obtained collagen gel, and keratinocytes were seeded inside the ring and cultured in MCDB Type-II-EGM (1:1) medium for 2 days. As a result, a sheet of keratinocytes (epithelial cell layer) with a diameter of about 1 cm is formed on the collagen gel. • (3) When the keratinocytes became confluent, the ring was removed and the medium was replaced with CM medium, and gas-liquid interface culture was performed for 5 days in the same manner as in the method (3) of Test Example 1.
# [3] = test system: NHDF (normal human skin fibroblasts); experiment: Monolayer culture of fibroblasts, optical microscope observation (Test Example 3-1); format: cell-based; conditions: 24 hours monolayer
# [4] = test system: ERK1/2 (Thr202/Tyr204 phosphorylated); experiment: Western blotting of phosphorylated ERK1/2 in fibroblasts (Test Example 3-1); format: cell-based, human; conditions: 0, 10, 100 mg/mL trehalose in medium, 24 hours
# Procedure: (§1) The cells were further DNA-stained with PI and subjected to FCM, and the proportion of each cell cycle was examined.
# (§2) (3) Furthermore, proteins were extracted from the fibroblasts obtained in (1) using RIPA buffer (1% protein inhibitor (manufactured by SIGMA)+Phosphatase Inhibitor cocktail (manufactured by SIGMA)). Then, 10 μg of protein per sample was separated by SDS-PAGE by a conventional method, transferred to a PVDF membrane, and then subjected to Western blotting. Phosphorylated ERK1/2 and phosphorylated AKT were detected by ECL Prime Western Blotting Detection Reagent (manufactured by GE Healthcare), using Phospho-p44/p42 MAPK (Erk1/2) (Thr202/Tyr204) (D13.14.4E) XP Rabbit mAb (#4300, Cell Signaling) and Phospho-Akt (Ser473) antibody (#9271, manufactured by Cell Signaling Technology) as a primary antibody, and an anti-rabbit IgG antibody and an anti-mouse IgG antibody manufactured by PROMEGA were used as secondary antibodies, and visualized by Image Quant LAS4010 (manufactured by GE Healthcare).
# [5] = test system: AKT (Ser473 phosphorylated); experiment: Western blotting of phosphorylated AKT in fibroblasts (Test Example 3-1); format: cell-based, human; conditions: 0, 10, 100 mg/mL trehalose in medium, 24 hours
# Procedure: as §1, §2
# β-actin = experiment: Western blotting of β-actin in fibroblasts (Test Example 3-1); format: cell-based, human; conditions: 0, 10, 100 mg/mL trehalose in medium, 24 hours
# Procedure: as §1, §2
# FGF2 mRNA = experiment: qPCR of FGF2 gene in monolayer fibroblasts (Test Example 3-2); format: cell-based, human; conditions: for FGF2 expression level compared to control without trehalose (vehicle): after 3 hours of culture
# Procedure: • (1) NHDF was seeded on a cell culture dish containing 1% FCS and 1% ABAM-containing DMEM medium containing 0, 30, and 100 mg/mL trehalose so as to be 5.5×10^4 cells/cm^2, and cultured for 3, 24, or 48 hours. • (2) Cells under each condition were collected, and mRNA was extracted using RNeasy Mini Kit (manufactured by QIAGEN). CDNA was prepared from mRNA using iScript cDNA Synthesis kit (manufactured by B10-RAD Laboratories). The method was performed according to each manual. Next, quantitative PCR (qPCR) of FGF2 gene was performed. For the reaction, Fast Start Universal Probe Master (Rox) (Roche) and StepOnePlue Real time PCR system were used. As a primer set, TaqMan probes for FGF2 (ThermoFisher Scientific) described in Table 5 were used. GAPDH was used as a reference gene. The number of samples used in each condition was 3.
# [6] = test system: human normal skin keratinocytes on collagen gel containing pretreated NHDF; experiment: Three-dimensional cultured skin using fibroblasts pretreated with trehalose (Test Example 4); format: cell-based
# Procedure: • (1) NHDF was seeded on a cell culture dish containing 10% FCS and 1% ABAM-containing DMEM medium at a cell density of 4.0×10^4 cells/cm^2. After 24 hours from seeding, at a cell density of 4.5×10^4 cells/cm^2, the medium was replaced with 1% FCS and 1% ABAM-containing DMEM medium containing 0, 30, or 100 mg/mL trehalose, and the cells were incubated at 37° C. for 24 hours. Then, a collagen gel containing 5.0×10^5 cells/ml of the obtained NHDF was prepared under the same conditions as in Test Example 1 except that trehalose was not added. • (2) According to the method of Test Example 1, the obtained NHDF-containing collagen gel was pre-cultured for 5 days, and then human normal skin keratinocytes were seeded and cultured for 2 days at 37° C. • (3) Further, according to the method of Test Example 1, gas-liquid interface culture was performed at 37° C. for 7 days using CM medium.
# [7] = 100 mg/mL trehalose, after 24 hours
# [8] = 100 mg/mL trehalose, after 48 hours
smiles,measurement,setting,value
"OC[C@H]1O[C@H](O[C@H]2O[C@H](CO)[C@@H](O)[C@H](O)[C@H]2O)[C@H](O)[C@@H](O)[C@@H]1O [trehalose, α, α-trehalose]",formation of epithelial tissue layer,[1],not observed
same,expansion of the epithelial tissue layer during gas-liquid interface culture,[2],expanded to the outer edge of the culture insert
same,increase in the number of cells,[3]; 10 mg/mL trehalose,slightly suppressed
same,appearance of damage to cells,[3]; 100 mg/mL trehalose,no appearance of any damage
same,cell morphology,[3]; 100 mg/mL trehalose,the number of spindle-shaped cells was large
same,increase in the number of cells,[3]; 100 mg/mL trehalose,further suppressed
same,phosphorylation of ERK1/2,[4],promoted as the concentration of trehalose in the medium increases
same,phosphorylation of AKT,[5],promoted as the concentration of trehalose in the medium increases
same,synthesis amount of β-actin,β-actin,increased depending on the amount of trehalose
same,FGF2 expression level compared to control without trehalose (vehicle),FGF2 mRNA; 30 mg/mL trehalose,increase
same,expression level of FGF2 mRNA,"FGF2 mRNA; 30 mg/mL trehalose, after 48 hours",slightly increased
same,FGF2 expression level compared to control without trehalose (vehicle),FGF2 mRNA; 100 mg/mL trehalose,increase
same,FGF2 mRNA expression level compared to that at the start of the culture,FGF2 mRNA; [7],still also increased
same,FGF2 mRNA expression level compared to the control,FGF2 mRNA; [7],significantly increased
same,FGF2 mRNA expression level compared to that at the start of the culture,FGF2 mRNA; [8],still also increased
same,FGF2 mRNA expression level compared to the control,FGF2 mRNA; [8],significantly increased
same,contraction of the collagen gel,[6]; fibroblast cells pre-cultured with trehalose,not observed
same,enlargement of three-dimensional cultured skin in diameter compared to pre-culturing with medium containing no trehalose,[6]; fibroblasts pre-cultured with 30 mg/mL trehalose for 24 hours before collagen gel preparation,about 1.4 times
same,area of three-dimensional cultured skin,[6]; fibroblasts pre-cultured with 100 mg/mL trehalose for 24 hours before collagen gel preparation,enlarged to cover the entire cell culture insert
